According to patent publication US20220220448A1, “INDUCED HUMAN COLITIC ORGANOIDS” (The Cleveland Clinic Foundation, priority 2019, published 2022):

Legend:
iHNOs = experiment: Repertaxin in vivo: non-IBD spheroids in TS-HA hydrogel beads implanted subcutaneously in NSG mice
Description: (§1) FIGS. 7A-U: Repertaxin attenuates the progression of the colitic phenotype in iHUCOs in vivo. (A) Schematic representation of repertaxin study in vivo; spheroids encapsulated in TS-HA hydrogel beads were implanted subcutaneously in the dorsal flanks of immunocompromised NSG mice receiving daily injections of repertaxin vs. PBS (21 days). (B, C) Representative immunofluorescence dual-staining of CXCR1 (red) and CXCL8 (green) expressed in epithelium and mesenchyme of iHNO and iHUCO in Ctrl (B) or repertaxin-treated (C). (D, E) Summarized percentages of cells positive for CXCR1, CXCL8 and both, in the epithelium and mesenchyme of non-IBD and UC organoids, after treatment with repertaxin (20 mg/kg) compared to PBS (Ctrl). (F-G) Representative H&E of non-IBD and UC organoids harvested after 21 days for control (F) and repertaxin treatment (G). (H, I) Mean organoid diameter and epithelial thickness after 21 days of repertaxin treatment vs. Ctrl. […] Results reported for the plasma membrane only (Mem), and cytoplasm+nucleus (Cyt+Nuc) cellular compartments. (R, S) Representative immunohistochemistry of RhoA, highlighting the effect of repertaxin on the cellular localization of the protein in plasma membrane only (Mem), and cytoplasm (Cyt) compartments. (T, U) Summarized percentages of cells expressing RhoA in Ctrl vs. repertaxin-treated organoids for plasma membrane-only (Mem) and cytoplasm (Cyt). IHC Scale bar, 40 um. IF Scale bar, 25 um. N=3 each. ns=not significant, *(p<0.05), **(p<0.01), ***(p<0.001), ****(p<0.0001). […] To test the significance of our repertaxin observations in vivo, we studied the effect of repertaxin on the developmental progression of spheroids to organoids, implanted subcutaneously in the dorsal flank of NSG mice (FIG. 7A, STAR Methods). In brief, we encapsulated the spheroids in TS-HA hydrogel beads and implanted the beads subcutaneously. Mice were then treated daily for 21 days with either 20 mg/kg repertaxin or PBS (control). The rate of growth was measured twice per week with calipers, and the volume calculated (STAR Methods).

iHUCOs (UC organoids) = experiment: Repertaxin treatment of iHUCOs in vitro during development from spheroids to organoids (IF, IHC, H&E, in situ hybridization); format: cell-based, human
Description: (§2) FIGS. 6A-U: Repertaxin attenuates the progression of the colitic phenotype in iHUCOs in vitro. (A, B) Representative immunofluorescence co-localization expression of CXCR1 (red) and CXCL8 (green) expressed in epithelium and mesenchyme of iHNO and iHUCO in the absence (A) or presence of repertaxin (B). (C, D) Summarized percentages of cells positive for CXCR1, CXCL8 and both, in the epithelium and mesenchyme of non-IBD and UC iHCOs, after treatment with repertaxin (20 μm) compared to vehicle (Ctrl). (E) Representative H&E of non-IBD and UC organoids in Ctrl compared to repertaxin treated (F). (G, H) Organoid mean diameter and epithelial thickness after 21 days of treatment with repertaxin compared to control. […] (S, T) Quantification of the percentage of the cells in control vs. repertaxin-treated organoids, positive for RhoA in plasma membrane-only (Mem) and cytoplasm (Cyt). […] IHC Scale bar, 40 um. IF Scale bar, 25 um. N=3 each; except for barrier studies, N=1. ns: not significant, **(p<0.01), ***(p<0.001), ****(p<0.0001). The upregulation of the CXCL8 receptor pro-inflammatory interaction in iHUCOs (FIG. 5) led us to study the effect of repertaxin, a small molecule inhibitor of the CXCL8 receptor, on organoids development. In brief, we treated both UC and non-IBD organoids with repertaxin for 21 days, during their development from spheroids to organoids and compared their phenotypic characteristics to vehicle (Ctrl) organoids.

iHUCOs = experiment: Repertaxin in vivo: UC spheroids in TS-HA hydrogel beads implanted subcutaneously in NSG mice
Description: as §1

[1] = test system: UC epithelial barrier (iHUCOs); experiment: Epithelial barrier permeability by microinjection of 4 kD dextran, real-time, iHUCOs; format: cell-based, human; conditions: 4 kDa dextran, 15 hours, treated vs untreated
Description: (§3) FIGS. 6A-U: Repertaxin attenuates the progression of the colitic phenotype in iHUCOs in vitro. (A, B) Representative immunofluorescence co-localization expression of CXCR1 (red) and CXCL8 (green) expressed in epithelium and mesenchyme of iHNO and iHUCO in the absence (A) or presence of repertaxin (B). (C, D) Summarized percentages of cells positive for CXCR1, CXCL8 and both, in the epithelium and mesenchyme of non-IBD and UC iHCOs, after treatment with repertaxin (20 μm) compared to vehicle (Ctrl). (E) Representative H&E of non-IBD and UC organoids in Ctrl compared to repertaxin treated (F). (G, H) Organoid mean diameter and epithelial thickness after 21 days of treatment with repertaxin compared to control. […] (S, T) Quantification of the percentage of the cells in control vs. repertaxin-treated organoids, positive for RhoA in plasma membrane-only (Mem) and cytoplasm (Cyt). […] IHC Scale bar, 40 um. IF Scale bar, 25 um. N=3 each; except for barrier studies, N=1. ns: not significant, **(p<0.01), ***(p<0.001), ****(p<0.0001). Moreover, to functionally confirm the adherens vs. tight junction signature in UC compared to non-IBD organoids, we used the recently described microinjection technique by Hill et al. to measure and compare the epithelial barrier permeability for both UC and non-IBD organoids in real-time. […]

[2] = test system: iHNOs (non-IBD organoids); experiment: Repertaxin treatment of iHNOs in vitro during development from spheroids to organoids (IF, IHC, H&E); format: cell-based, human
Description: as §2

[3] = test system: epithelial barrier of non-IBD organoids (iHNOs); experiment: Epithelial barrier permeability by microinjection of 4 kD dextran, real-time, iHNOs; format: cell-based, human; conditions: 4 kDa dextran, 15 hours, treated vs untreated
Description: as §3

[4] = non-IBD organoids, 20 mg/kg daily, 21 days, vs PBS
[5] = UC organoids, IHC, repertaxin vs control
[6] = iHUCOs epithelium, IHC, repertaxin vs control
[7] = iHUCOs, 21 days repertaxin vs control
[8] = iHUCOs, repertaxin (20 μm), 21 days, vs control
[9] = iHUCOs, repertaxin (20 μm), 21 days, vs vehicle (Ctrl), average
[10] = UC organoids, 20 mg/kg daily, 21 days, vs PBS
[11] = iHUCOs, 20 mg/kg daily, 21 days, vs PBS
[12] = iHUCOs, IHC, vs untreated control
[13] = iHNOs, IHC, repertaxin vs control
[14] = non-IBD organoids, 21 days repertaxin vs control
[15] = non-IBD organoids, IHC, repertaxin vs control
[16] = non-IBD organoids, repertaxin (20 μm), 21 days, vs control

Compound: CC(C)Cc1ccc([C@@H](C)C(=O)NS(C)(=O)=O)cc1 [repertaxin]
- epithelial thickness (iHNOs; iHNOs, 20 mg/kg daily, 21 days, vs PBS): no significant effect
- E-cadherin expression pattern (iHNOs; iHNOs, IHC, vs control): higher rate of expression in membrane
- RhoA expression (iHNOs; iHNOs, IHC, vs control): did not have a significant effect
- β-catenin expression pattern (iHNOs; iHNOs, IHC, vs control): higher rate of expression in membrane
- Ki67 proliferation rate in the epithelium (iHNOs; non-IBD epithelium, 20 mg/kg daily, 21 days, vs PBS): did not have a significant effect
- CXCL8 expression (iHNOs; [4]): less
- CXCR1 expression (iHNOs; [4]): less
- Claudin-1 expression (iHNOs; non-IBD organoids, IHC, vs control): did not change
- cytoplasmic and nuclear expression of E-cadherin (iHUCOs (UC organoids); [5]): greater
- cytoplasmic and nuclear expression of β-catenin (iHUCOs (UC organoids); [5]): greater
- RhoA expression in cytoplasm (iHUCOs (UC organoids); [6]): less RhoA expression
- less RhoA expression on the membrane (activated RhoA) (iHUCOs (UC organoids); [6]): ~5 fold
- epithelial thickness (iHUCOs (UC organoids); [7]): less thick epithelium
- organoid size (iHUCOs (UC organoids); [7]): significantly lower size
- Claudin-1 expression (iHUCOs (UC organoids); iHUCOs, IHC, repertaxin vs control): significantly more expression
- CXCL8 expression (iHUCOs (UC organoids); [8]): significantly lower than control
- percentage of co-expression of CXCL8/CXCR1 (iHUCOs (UC organoids); [8]): significantly lower than control
- lower expression of CXCR1 in the epithelium (iHUCOs (UC organoids); [9]): 7 fold
- lower expression of CXCR1 in the mesenchyme (iHUCOs (UC organoids); [9]): 9 fold
- expression pattern of p-YAP1 (iHUCOs (UC organoids); treated iHUCOs, IHC): more closely resembled the expression patterns in iHNOs
- expression pattern of LGR5 (iHUCOs (UC organoids); treated iHUCOs, in situ hybridization): more closely resembled the expression patterns in iHNOs
- overall calculated volume of implanted beads (iHUCOs; 20 mg/kg repertaxin daily for 21 days vs PBS, groups (UC and non-IBD) not told apart): significantly greater in the PBS than in the repertaxin-treated groups
- CXCL8 expression (iHUCOs; [10]): less
- CXCR1 expression (iHUCOs; [10]): less
- Ki67 proliferation rate in the epithelium (iHUCOs; [11]): significantly reduced
- epithelial thickness (iHUCOs; [11]): significant less thick epithelium
- Claudin-1 expression (iHUCOs; iHUCOs, IHC, vs control): significantly increased
- cytoplasmic expression of RhoA (iHUCOs; iHUCOs, IHC, vs control): strongly decreased
- membranous expression of RhoA (iHUCOs; iHUCOs, IHC, vs control): strongly decreased
- cytoplasmic and nuclear expression of E-cadherin (iHUCOs; [12]): greater cytoplasmic and nuclear expression
- cytoplasmic and nuclear expression of β-catenin (iHUCOs; [12]): greater cytoplasmic and nuclear expression
- rate of permeability of the epithelial barrier (dye release) [1]: significantly decreased
- real-time measurement timepoints with significantly decreased permeability [1]: 50%
- Ki67 expression in the epithelium (proliferation) [2, 13]: significantly lower expression
- RhoA expression [2, 13]: did not significantly affect
- Claudin-1 expression ([2]; iHNOs, IHC, treated vs control): no significant changes
- epithelial thickness [2, 14]: did not change
- organoid size [2, 14]: significantly smaller organoids
- cells with expression of E-cadherin limited to the plasma membrane [2, 15]: significantly more cells with limited expression
- cells with expression of β-catenin limited to the plasma membrane [2, 15]: significantly more cells with limited expression
- cytoplasmic and nuclear expression of E-cadherin [2, 15]: lower cytoplasmic and nuclear expression
- cytoplasmic and nuclear expression of β-catenin [2, 15]: lower cytoplasmic and nuclear expression
- CXCL8 expression [2, 16]: significantly less
- CXCR1 expression [2, 16]: significantly less
- epithelial permeability (dye release) [3]: did not have a significant effect
